Test results from PubChem BioAssay AID256 (DTP/NCI, 2004).
Toxic doses and inconclusive results are not listed. Rule for the calls: active = survival T/C of 150% or more; inactive = T/C below 125% in these data.

Test system: CD2F1 mice, L1210 leukemia ip, survival T/C
Assay: NCI In Vivo Anticancer Drug Screen. Data for tumor model L1210 Leukemia (intraperitoneal) in CD2F1 (CDF1) mice
Conditions: higher = longer survival
Outline: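 Compound-dosed mice with transplantable tumor versus matched vehicle controls; endpoint ratio T/C reported.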

[1] = endpoint: mean survival time, dose: 100.0 mg/kg/injection, schedule: Q01DX009 (ip), vehicle: saline with Tween-80
[2] = endpoint: mean survival time, dose: 100.0 mg/kg/injection, schedule: Q04DX003 (ip), vehicle: saline with Tween-80
[3] = endpoint: mean survival time, dose: 200.0 mg/kg/injection, schedule: Q01DX009 (ip), vehicle: saline with Tween-80
[4] = endpoint: mean survival time, dose: 200.0 mg/kg/injection, schedule: Q04DX003 (ip), vehicle: saline with Tween-80
[5] = endpoint: mean survival time, dose: 25.0 mg/kg/injection, schedule: Q04DX002 (ip), vehicle: saline with Tween-80
[6] = endpoint: mean survival time, dose: 100.0 mg/kg/injection, schedule: Q04DX002 (ip), vehicle: saline with Tween-80
[7] = endpoint: mean survival time, dose: 25.0 mg/kg/injection, schedule: Q04DX003 (ip), vehicle: saline with Tween-80
[8] = endpoint: mean survival time, dose: 50.0 mg/kg/injection, schedule: Q04DX003 (ip), vehicle: saline with Tween-80
[9] = endpoint: mean survival time, dose: 400.0 mg/kg/injection, schedule: Q04DX003 (ip), vehicle: saline with Tween-80
[10] = endpoint: mean survival time, dose: 100.0 mg/kg/injection, schedule: Q01DX001 (ip), vehicle: saline with Tween-80
[11] = endpoint: mean survival time, dose: 200.0 mg/kg/injection, schedule: Q01DX001 (ip), vehicle: saline with Tween-80
[12] = endpoint: mean survival time, dose: 400.0 mg/kg/injection, schedule: Q01DX001 (ip), vehicle: saline with Tween-80
[13] = endpoint: mean survival time, dose: 50.0 mg/kg/injection, schedule: Q01DX009 (ip), vehicle: saline with Tween-80
[14] = endpoint: mean survival time, dose: 200.0 mg/kg/injection, schedule: Q04DX002 (ip), vehicle: saline with Tween-80
[15] = endpoint: mean survival time, dose: 400.0 mg/kg/injection, schedule: Q04DX002 (ip), vehicle: saline with Tween-80
[16] = endpoint: mean survival time, dose: 50.0 mg/kg/injection, schedule: Q01DX009 (ip), vehicle: saline
[17] = endpoint: mean survival time, dose: 100.0 mg/kg/injection, schedule: Q01DX009 (ip), vehicle: saline
[18] = endpoint: mean survival time, dose: 200.0 mg/kg/injection, schedule: Q01DX009 (ip), vehicle: saline

Measured: T/C

NC(=O)NC(=O)c1cccc([N+](=O)[O-])c1
inactive: [1] 104 % of control | [2] 97 % of control | [3] 97 % of control | [4] 94 % of control

C[PH+](CC[PH+](c1ccccc1)c1ccccc1)c1ccccc1.[C-]#[O+].[C-]#[O+].[C-]#[O+].[C-]#[O+].[Mo] (stereo not given)
inactive: [5] 93 % of control | endpoint: mean survival time, dose: 50.0 mg/kg/injection, schedule: Q04DX002 (ip), vehicle: saline with Tween-80 89 % of control | [6] 89 % of control

COc1ccc(C(=CC2=CC(=O)C3=C(CCCC3)C2=O)c2ccc(OC)cc2)cc1
inactive: endpoint: mean survival time, dose: 100.0 mg/kg/injection, schedule: Q04DX003 (ip), vehicle: saline sonified 96 % of control | endpoint: mean survival time, dose: 200.0 mg/kg/injection, schedule: Q04DX003 (ip), vehicle: saline sonified 100 % of control | endpoint: mean survival time, dose: 400.0 mg/kg/injection, schedule: Q04DX003 (ip), vehicle: saline sonified 97 % of control

Cc1c[nH]c(=O)n(CC(=O)C2CCC3C4CCC5=CC(=O)CCC5(C)C4CCC23C)c1=O (stereo not given)
inactive: endpoint: mean survival time, dose: 12.5 mg/kg/injection, schedule: Q04DX003 (ip), vehicle: Klucel (hydroxypropylcellulose) (HPC) 95 % of control | endpoint: mean survival time, dose: 25.0 mg/kg/injection, schedule: Q04DX003 (ip), vehicle: Klucel (hydroxypropylcellulose) (HPC) 95 % of control | endpoint: mean survival time, dose: 50.0 mg/kg/injection, schedule: Q04DX003 (ip), vehicle: Klucel (hydroxypropylcellulose) (HPC) 97 % of control | endpoint: mean survival time, dose: 100.0 mg/kg/injection, schedule: Q04DX003 (ip), vehicle: Klucel (hydroxypropylcellulose) (HPC) 98 % of control | endpoint: mean survival time, dose: 200.0 mg/kg/injection, schedule: Q04DX003 (ip), vehicle: Klucel (hydroxypropylcellulose) (HPC) 98 % of control

S=C(S)OCc1ccccc1.[Pt]
inactive: [7] 102 % of control | [8] 102 % of control | [2] 104 % of control | [4] 102 % of control | [9] 104 % of control

CCNCc1ccc(OC)cc1
inactive: [7] 106 % of control | [8] 104 % of control | [2] 93 % of control

CC(=O)Nc1c(F)c(F)c(F)c(F)c1F
inactive: [10] 102 % of control | [11] 95 % of control | [12] 94 % of control

BrCCC1(CCBr)CCCCC1
inactive: endpoint: median survival time, dose: 50.0 mg/kg/injection, schedule: Q01DX009 (ip), vehicle: other 104 % of control | endpoint: median survival time, dose: 200.0 mg/kg/injection, schedule: Q01DX009 (ip), vehicle: other 101 % of control | endpoint: median survival time, dose: 400.0 mg/kg/injection, schedule: Q01DX009 (ip), vehicle: other 101 % of control | endpoint: median survival time, dose: 800.0 mg/kg/injection, schedule: Q01DX009 (ip), vehicle: other 101 % of control

OC1c2ccccc2CC1N1CCCCC1 (stereo not given)
inactive: endpoint: mean survival time, dose: 25.0 mg/kg/injection, schedule: Q01DX009 (ip), vehicle: saline with Tween-80 95 % of control | [13] 101 % of control | [1] 98 % of control

Cc1nc(-c2ccccc2)[nH]c(=O)c1CC(C)O (stereo not given)
inactive: [1] 91 % of control | [2] 94 % of control | [3] 96 % of control | [4] 95 % of control | [9] 92 % of control

Cc1cc(C)c(C)c(C(C)O)c1C (stereo not given)
inactive: [13] 100 % of control | [1] 100 % of control | [3] 97 % of control

O=C(Nc1ccc2c(c1)Cc1cc(Br)ccc1-2)C(F)(F)F
inactive: [2] 101 % of control | [4] 97 % of control | [9] 101 % of control

CO[C@@]12[C@@H]3N[C@@H]3CN1C1=C(C(=O)C(NCCN3CCOCC3)=C(C)C1=O)[C@@H]2COC(N)=O
inactive: endpoint: mean survival time, dose: 1.5 mg/kg/injection, schedule: Q01DX001 (ip), vehicle: water 100 % of control | endpoint: mean survival time, dose: 3.0 mg/kg/injection, schedule: Q01DX001 (ip), vehicle: water 101 % of control | endpoint: mean survival time, dose: 6.0 mg/kg/injection, schedule: Q01DX001 (ip), vehicle: water 105 % of control | endpoint: mean survival time, dose: 12.0 mg/kg/injection, schedule: Q01DX001 (ip), vehicle: water 106 % of control | endpoint: mean survival time, dose: 24.0 mg/kg/injection, schedule: Q01DX001 (ip), vehicle: water 103 % of control

O=C(O)CC(Sc1ccccc1)c1ccccc1 (stereo not given)
inactive: endpoint: mean survival time, dose: 100.0 mg/kg/injection, schedule: Q04DX003 (ip), vehicle: other 97 % of control | endpoint: mean survival time, dose: 200.0 mg/kg/injection, schedule: Q04DX003 (ip), vehicle: other 101 % of control

CC1CCCC2(C)CCC(C(C)(C)O)CC12 (stereo not given)
inactive: endpoint: mean survival time, dose: 100.0 mg/kg/injection, schedule: Q01DX001 (ip), vehicle: saline 103 % of control | endpoint: mean survival time, dose: 200.0 mg/kg/injection, schedule: Q01DX001 (ip), vehicle: saline 100 % of control | endpoint: mean survival time, dose: 400.0 mg/kg/injection, schedule: Q01DX001 (ip), vehicle: saline 103 % of control

CCCCNCC(C)C(=O)OC (stereo not given)
inactive: [2] 98 % of control | [4] 98 % of control | [9] 102 % of control

C=Cc1cnc(N)nc1-c1ccc(OC)cc1
inactive: [6] 101 % of control | [14] 96 % of control | [15] 96 % of control

NCCS/C=C/C(=O)O
inactive: endpoint: mean survival time, dose: 100.0 mg/kg/injection, schedule: Q04DX003 (ip), vehicle: saline 97 % of control | endpoint: mean survival time, dose: 200.0 mg/kg/injection, schedule: Q04DX003 (ip), vehicle: saline 109 % of control | endpoint: mean survival time, dose: 400.0 mg/kg/injection, schedule: Q04DX003 (ip), vehicle: saline 101 % of control

O=c1c2ccccc2sc2c1ccc1ccccc12
inactive: [10] 100 % of control | [11] 101 % of control | [12] 94 % of control

COc1ccccc1N=Nc1c(O)n(-c2ccc(Cl)cc2)c(=S)n(-c2ccccc2)c1=O
inactive: [10] 97 % of control | [6] 98 % of control | [11] 97 % of control | [14] 94 % of control | [12] 103 % of control | [15] 102 % of control

NC(CSS(=O)(=O)O)=NCCc1cccs1
inactive: endpoint: mean survival time, dose: 12.5 mg/kg/injection, schedule: Q04DX002 (ip), vehicle: saline with Tween-80 97 % of control | [5] 105 % of control

CCCCCCCCCCC[n+]1ccc(C#N)cc1
inactive: endpoint: mean survival time, dose: 9.38 mg/kg/injection, schedule: Q01DX001 (ip), vehicle: saline 105 % of control | endpoint: mean survival time, dose: 18.75 mg/kg/injection, schedule: Q01DX001 (ip), vehicle: saline 98 % of control

O=C(O)CS(=O)(=O)CC(=O)O
inactive: endpoint: mean survival time, dose: 25.0 mg/kg/injection, schedule: Q01DX001 (ip), vehicle: saline with Tween-80 93 % of control | endpoint: mean survival time, dose: 50.0 mg/kg/injection, schedule: Q01DX001 (ip), vehicle: saline with Tween-80 104 % of control | [16] 90 % of control | [10] 102 % of control | [17] 89 % of control | [18] 93 % of control

OC(CC1CCCC(CC(O)c2ccccc2)N1CCc1ccccc1)c1ccccc1 (stereo not given)
inactive: endpoint: mean survival time, dose: 75.0 mg/kg/injection, schedule: Q01DX001 (ip), vehicle: saline 97 % of control | endpoint: mean survival time, dose: 150.0 mg/kg/injection, schedule: Q01DX001 (ip), vehicle: saline 91 % of control

CCOC(=O)NCNC(C)C(=O)O (stereo not given)
inactive: [16] 115 % of control | [17] 104 % of control | [18] 115 % of control

CCOC(=O)/C=C/c1ccc2c(c1)OCO2
inactive: [2] 97 % of control | [4] 94 % of control | [9] 103 % of control
